Data set [1] deals with carboxylesterase. The note with it: carboxylesterase-mediated; rest eliminated through alternative pathways; cited from earlier work.
In data set [2] the test system is SY5Y-TrkB human neuroblastoma cells. The experiment in a line: Tumor growth inhibition in the murine xenograft model of neuroblastoma. Format: in vivo, athymic nu/nu mice. As to conditions: three weeks. Here is the method:
For xenograft studies, athymic nu/nu mice (nine animals per group) were injected in the flank with 10^7 SY5Y-TrkB human neuroblastoma cells in 0.3 mL […]™ matrix (BD Biosciences, Franklin Lakes, N.J.). Treatment was started when the average SY5Y-TrkB tumor size was 0.2 cm^3. Nanoparticles were administered intravenously through the tail vein twice a week at a dose equivalent to 10 mg/kg of SN-38 per injection for comparison against a ‘no treatment’ control and a clinically used irinotecan formulation (CAMPTOSAR®, Pfizer, given orally five times a week at a therapeutically relevant dose of 10 mg/kg as described in Thompson J. et al., Efficacy of oral irinotecan against neuroblastoma xenografts, Anticancer Drugs. 1997 April; 8(4):313-22). Tumor size in each group was measured daily over a period of three weeks. […] The error bars in FIG. 2A represent standard deviations.
Tumor growth inhibition by PLA-PEG nanoparticles loaded with an SN-38 conjugate with tocopherol succinate (made according to Example 7) was administered over 4 weeks at indicated dose regimens (each injection equivalent to 10 mg SN-38/kg) to animals xenografted as in Example 8. The effect is shown in comparison to irinotecan administered 5 times a week for 4 weeks at the same dose per injection. Animals were sacrificed after their tumors reached 3 cm^3. […]

For the molecule `CCc1c2c(nc3ccc(OC(=O)N4CCC(N5CCCCC5)CC4)cc13)-c1cc3c(c(=O)n1C2)COC(=O)[C@]3(O)CC` [irinotecan], in data set [1], the “rate of conversion to the pharmacologically active SN-38” value is “less than 10%”. For the same molecule, the “efficacy on tumor size (FIG. 2A)” value in data set [2] (CAMPTOSAR given orally five times a week at 10 mg/kg (50 mg/kg per week)) is reported as “showed efficacy vs. ‘no treatment’ control”. For the same molecule, in data set [2] (CAMPTOSAR given orally five times a week at 10 mg/kg, vs 'no treatment' control), the “animal survival (FIG. 2B)” value is reported as “significantly improved animal survival compared with the control group”.
